In US9907737B2, “Composition comprising ferulic acid ethyl ester and aryl alkanol” (L'AIR LIQUIDE, SOCIETE ANONYME POUR L'ETUDE ET …, priority 2013, dated 2018):
Marks after values point to notes of the source that are not given here.

Assays:
S. aureus ATCC: 6538 = assay: Bacterial count reduction test (method 1), S. aureus; assay type: cell-based, Staphylococcus aureus; conditions: o/w cream, initial bacterial count 1 × 10^9
Procedure: (§1) Method 1: Bacterial Count Reduction Test
(§2) The aim of this bacterial count reduction test is to determine suitable preservatives and reaction times for samples injected in the laboratory.
(§3) Staphylococcus aureus, Escherichia coli or Pseudomonas aeruginosa, Candida albicans, Aspergillus brasiliensis
(§4) From a 24-hour CS-angular agar culture (I subculture) of Staphylococcus aureus/Escherichia coli 24-hour CSL-cultures (II subculture) are created. The incubation is carried out at 37° C. The titer of the bacterial suspension is about 10^9 CFU/ml.
(§5) The titres of the respectively produced test organism suspensions are determined by means of a dilution series in physiological NaCl and recorded.
(§6) The samples are displaced with different concentrations of suitable preservatives. For each test bacterium a dilution series is required. The samples are injected individually with the respective test organism suspension and stirred well:
(§7) 25 g samples=0.1 ml bacterial suspension
(§8) 50 g samples=0.2 ml bacterial suspension.
(§9) After the indicated reaction times the samples are firstly stirred homogenously with a sterile glass rod and then spread onto CSA or SA agar. The bacteria samples are spread onto CSA and incubated for 48 hours at 37° C. The mould and yeast samples are spread onto SA agar and incubated for 48 hours at 37° C. (Candida albicans) and at 25° C. (Aspergillus brasiliensis).

E. coli ATCC: 11229 = assay: Bacterial count reduction test (method 1), E. coli; assay type: cell-based, Escherichia coli; conditions: o/w cream, initial bacterial count 1.3 × 10^9
Procedure: as §1, §2, §3, §4, §5, §6, §7, §8, §9

C. albicans ATCC: 10231 = assay: Bacterial count reduction test (method 1), C. albicans; assay type: cell-based, Candida albicans
Procedure: as §1, §2, §3
A 4 day old Candida albicans culture on SA-agar (II subculture) is washed with 5 ml physiological NaCl and adjusted according to a barium sulphate standard (cf. DVG Guidelines). The titer of the Candida albicans suspension is 10^8 CFU/ml.
as §5, §6, §7, §8, §9

[1] = tested on: A. brasiliensis ATCC: 16404; assay: Bacterial count reduction test (method 1), A. brasiliensis; assay type: cell-based, Aspergillus brasiliensis
Procedure: as §1, §2, §3
A 7 to 14 days old Aspergillus brasiliensis culture on SA agar (25° C.±1° C.) is washed with 5 ml physiological NaCl, filtered by a glass funnel with glass wool and filled with physiological NaCl to 100 ml. The titre of the Aspergillus brasiliensis suspension is about 10^7 CFU/ml.
as §5, §6, §7, §8, §9

[2] = tested on: Staphylococcus aureus, Escherichia coli or Pseudomonas aeruginosa, Candida albicans, Aspergillus brasiliensis; assay: Bacterial count reduction test (method 1), summary in words over the test organisms; assay type: cell-based; conditions: Example 3, Table 4; o/w-Lotion; concentration of 2%
Procedure: as §1, §2, §3, §6, §9

[3] = o/w cream, initial bacterial count 4.1 × 10^8
[4] = o/w-Lotion, initial bacterial count 5.4 × 10^8
[5] = o/w cream, initial bacterial count 1.5 × 10^7
[6] = o/w-Lotion, initial bacterial count 7.7 × 10^7

## COc1cc(/C=C/C(=O)O)ccc1O [0.1% ferulic acid, ferulic acid]
S. aureus ATCC: 6538; 24 h
  Growth of S. aureus ATCC: 6538 after 24 hours: R (Surface covered About 10^6)
S. aureus ATCC: 6538; 72 h
  Growth of S. aureus ATCC: 6538 after 72 hours: ++++ (Massive growth About 10^5)
S. aureus ATCC: 6538; 168 h
  Growth of S. aureus ATCC: 6538 after 168 hours: ++++ (Massive growth About 10^5)
S. aureus ATCC: 6538; 336 h
  Growth of S. aureus ATCC: 6538 after 336 hours: ++++ (Massive growth About 10^5)
E. coli ATCC: 11229; 24 h
  Growth of E. coli ATCC: 11229 after 24 hours: ++++ (Massive growth About 10^5)
E. coli ATCC: 11229; 72 h
  Growth of E. coli ATCC: 11229 after 72 hours: R (Surface covered About 10^6)
E. coli ATCC: 11229; 168 h
  Growth of E. coli ATCC: 11229 after 168 hours: R (Surface covered About 10^6)
E. coli ATCC: 11229; 336 h
  Growth of E. coli ATCC: 11229 after 336 hours: R (Surface covered About 10^6)
C. albicans ATCC: 10231; [3]
  Growth of C. albicans ATCC: 10231 after 24 hours: R (Surface covered About 10^6)
  Growth of C. albicans ATCC: 10231 after 72 hours: R (Surface covered About 10^6)
  Growth of C. albicans ATCC: 10231 after 168 hours: ++++ (Massive growth About 10^5)
  Growth of C. albicans ATCC: 10231 after 336 hours: ++++ (Massive growth About 10^5)
C. albicans ATCC: 10231; [4]
  Growth of C. albicans ATCC: 10231 after 24 hours: R (Surface covered About 10^6)
  Growth of C. albicans ATCC: 10231 after 72 hours: R (Surface covered About 10^6)
  Growth of C. albicans ATCC: 10231 after 168 hours: ++++ (Massive growth About 10^5)
  Growth of C. albicans ATCC: 10231 after 336 hours: ++++ (Massive growth About 10^5)
[1]; [5]
  Growth of A. brasiliensis ATCC: 16404 after 24 hours: ++++ (Massive growth About 10^5)
  Growth of A. brasiliensis ATCC: 16404 after 72 hours: ++++ (Massive growth About 10^5)
  Growth of A. brasiliensis ATCC: 16404 after 168 hours: ++++ (Massive growth About 10^5)
  Growth of A. brasiliensis ATCC: 16404 after 336 hours: ++++ (Massive growth About 10^5)
[1]; [6]
  Growth of A. brasiliensis ATCC: 16404 after 24 hours: ++++ (Massive growth About 10^5)
  Growth of A. brasiliensis ATCC: 16404 after 72 hours: ++++ (Massive growth About 10^5)
  Growth of A. brasiliensis ATCC: 16404 after 168 hours: ++++ (Massive growth About 10^5)
  Growth of A. brasiliensis ATCC: 16404 after 336 hours: ++++ (Massive growth About 10^5)
[2]
  Effectiveness in bacterial count reduction test, in words: inherent effectiveness
